Reference: patent US12180226B2, “Spirotricycle RIPK1 inhibitors and methods of uses thereof” (Merck Sharp & Dohme LLC, priority 2021, dated 2024)
Structures can show the parent of a compound that is named as a salt.

Biological target: RIPK1 (recombinant GST-RIPK1 kinase domain, residues 1-327) (Homo sapiens (Human), UniProt Q13546)
Assay: RIPK1-ADP-Glo Enzymatic Assay
Assay type: biochemical
Settings: ADP-Glo; 25 nM GST-RIPK1, 300 μM ATP; assay lower limit ~25 nM; read-out: RIPK1 V0 Ec50
Procedure, shortened: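 Enzyme from baculovirus-infected Sf21 cells, 25 nM final, was pre-incubated 30 min at ambient temperature with compound (ten-point, 1:3 dilution from 100000 nM, 1% DMSO), then reacted 150 min with 300 μM ATP and 3 μM dephosphorylated MBP. ADP was read by luminescence; EC50 from four-parameter fit.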

Sequence of RIPK1 (recombinant GST-RIPK1 kinase domain, residues 1-327) (Q13546 1-327): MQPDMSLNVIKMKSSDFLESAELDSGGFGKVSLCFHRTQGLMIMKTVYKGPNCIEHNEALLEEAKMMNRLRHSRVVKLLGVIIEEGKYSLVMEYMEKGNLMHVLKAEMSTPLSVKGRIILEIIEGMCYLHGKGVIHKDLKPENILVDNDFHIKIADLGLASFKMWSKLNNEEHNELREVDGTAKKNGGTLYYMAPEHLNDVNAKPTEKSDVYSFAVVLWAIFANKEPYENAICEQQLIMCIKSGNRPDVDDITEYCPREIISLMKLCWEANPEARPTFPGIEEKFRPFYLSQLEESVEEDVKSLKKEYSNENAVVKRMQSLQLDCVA

Structure (SMILES)	EC50 [nM]
O=C1N2[C@@H](CC[C@H]2c2cc(F)cc(F)c2)OC12CCN(c1nccc3nccn13)CC2 [Example 4.82, (5′S,7a′R)-5′-(3,5-difluorophenyl)-1-(imidazo[1,2-c]pyrimidin-5-yl)tetrahydro-3′H-spiro[piperidine-4,2′-pyrrolo[2,1-b]oxazol]-3′-one, TFA salt]	25
O=C1N2[C@@H](CC[C@H]2c2ccccc2)OC12CCN(c1ncnn3c(F)cnc13)CC2 [Example 4.226, (5′S,7a′R)-1-(7-fluoroimidazo[2,1-f] [1,2,4]triazin-4-yl)-5′-phenyltetrahydro-3′H-spiro[piperidine-4,2′-pyrrolo[2,1-b] [1,3]oxazol]-3′-one]	< 25
N#CC1(NC(=O)c2nc(N3CCC4(CC3)O[C@@H]3CC[C@@H](c5cc(F)cc(F)c5)N3C4=O)ncc2F)CCC1 [Example 7.13, N-(1-cyanocyclobutyl)-2-[(5′S,7a′R)-5′-(3,5-difluorophenyl)-3′-oxotetrahydro-1H,3′H-spiro[piperidine-4,2′-pyrrolo[2,1-b][1,3]oxazol]-1-yl]-5-fluoropyrimidine-4-carboxamide]	191
N#Cc1cc([C@@H]2CC[C@H]3OC4(CCN(c5ccnc6c(F)cnn56)CC4)C(=O)N32)ccc1F [Example 20.6, 2-fluoro-5-[(5′S,7a′R)-1-(3-fluoropyrazolo[1,5-a]pyrimidin-7-yl)-3′-oxotetrahydro-3′H-spiro[piperidine-4,2′-pyrrolo[2,1-b][1,3]oxazol]-5′-yl]benzonitrile]	< 25
O=C(c1ccoc1)N1CCC2(CC1)O[C@@H]1CC[C@@H](c3cccc(F)c3)N1C2=O [Example 6.125, (5′S,7a′R)-5′-(3-fluoro-phenyl)-1-(furan-3-carbonyl)tetrahydro-3′H-spiro[piperidine-4,2′-pyrrolo[2,1-b] [1,3]oxazol]-3′-one]	< 25
COc1cc(F)cc([C@@H]2CC[C@H]3OC4(CCN(C(=O)c5ccccc5)CC4)C(=O)N32)c1 [Example 17.9, (5′S,7a′R)-1-benzoyl-5′-(3-fluoro-5-methoxyphenyl)tetrahydro-3′H-spiro[piperidine-4,2′-pyrrolo[2,1-b]oxazol]-3′-one]	40.7
O=C(c1c(F)cc(F)cc1F)N1CCC2(CC1)O[C@@H]1CC[C@@H](c3cc(F)cc(F)c3)N1C2=O [Example 5.2, (5′S,7a′R)-5′-(3,5-difluoro-phenyl)-1-(2,4,6-trifluoro-benzene-1-carbonyl)tetra-hydro-3′H-spiro[piperi-dine-4,2′-pyrrolo[2,1-b] [1,3]oxazol]-3′-one]	< 25
N#Cc1cccc([C@@H]2CC[C@H]3OC4(CCN(c5ccnc6c(F)cnn56)CC4)C(=O)N32)c1F [Example 20.5, 2-fluoro-3-[(5′S,7a′R)-1-(3-fluoropyrazolo[1,5-a]pyrimidin-7-yl)-3′-oxotetrahydro-3′H-spiro[piperidine-4,2′-pyrrolo[2,1-b][1,3]oxazol]-5′-yl]benzonitrile]	< 25
O=C(c1cnc2ccccc2n1)N1CCC2(CC1)O[C@@H]1CC[C@@H](c3cc(F)cc(F)c3)N1C2=O [Example 6.73, (5′S,7a′R)-5′-(3,5-difluorophenyl)-1-(quinoxaline-2-carbon-yl)tetrahydro-3′H-spiro[piperidine-4,2′-pyrrolo[2,1-b][1,3]-oxazol]-3′-one]	48.6
N#Cc1cc(N2CCC3(CC2)O[C@@H]2CC[C@@H](c4ccccc4F)N2C3=O)ncn1 [Example 4.104, 6-((5′S,7a′R)-5′-(2-fluorophenyl)-3′-oxotetrahydro-3′H-spiro[piperidine-4,2′-pyrrolo[2,1-b]oxazol]-1-yl)pyrimidine-4-carbonitrile]	33.9
COc1cccc(C(=O)N2CCC3(CC2)O[C@@H]2CC[C@@H](c4cccc(F)c4)N2C3=O)c1 [Example 6.117, (5′S,7a′R)-5′-(3-fluorophenyl)-1-(3-methoxybenzene-1-carbonyl)tetrahydro-3′H-spiro[piperidine-4,2′-pyrrolo[2,1-b] [1,3]oxazol]-3′-one]	< 25
N#Cc1cc(C(=O)N2CCC3(CC2)O[C@@H]2CC[C@@H](c4cc(F)cc(F)c4)N2C3=O)ccc1F [Example 5.14, 5-((5′S,7a′R)-5′-(3,5-difluorophenyl)-3′-oxo-tetrahydro-3′H-spiro [piperidine-4,2′-pyrrolo-[2,1-b]oxazole]-1-carbon-yl)-2-fluorobenzonitrile]	< 25
N#Cc1ccccc1C(=O)N1CCC2(CC1)O[C@@H]1CC[C@@H](c3cc(F)cc(F)c3)N1C2=O [Example 5.13, 2-((5′S,7a′R)-5′-(3,5-difluorophenyl)-3′-oxo-tetrahydro-3′H-spiro [piperidine-4,2′-pyrrolo-[2,1-b]oxazole]-1-carbon-yl)benzonitrile]	277
O=C(c1ccc(F)c(F)n1)N1CCC2(CC1)O[C@@H]1CC[C@@H](c3cc(F)cc(F)c3)N1C2=O [Example 6.94, (5′S,7a′R)-5′-(3,5-difluorophenyl)-1-(5,6-difluoropyridine-2-carbonyl)tetrahydro-3′H-spiro[piperidine-4,2′-pyrrolo[2,1-b] [1,3]oxazol]-3′-one]	30.5
O=C1N2[C@@H](CC[C@H]2c2cc(F)cc(F)c2)OC12CCN(c1ccc(Cl)c3ccnn13)CC2 [Example 15.1, (5′S,7a′R)-1-(4-chloropyrazolo[1,5-a]pyridin-7-yl)-5′-(3,5-difluorophenyl)tetrahydro-3′H-spiro[piperidine-4,2′-pyrrolo[2,1-b]oxazol]-3′-one, TFA]	< 25
Cc1cc2nccc(N3CCC4(CC3)O[C@@H]3CC[C@@H](c5cc(F)cc(F)c5)N3C4=O)n2n1 [Example 4.85, (5′S,7a′R)-5′-(3,5-difluorophenyl)-1-(2-methylpyrazolo[1,5-a]pyrimidin-7-yl)tetrahydro-3′H-spiro[piperidine-4,2′-pyrrolo[2,1-b]oxazol]-3′-one, TFA salt]	63.4
Cc1cnn(-c2cc(N3CCC4(CC3)O[C@@H]3CC[C@@H](c5ccccc5)N3C4=O)ncn2)c1 [Example 4.176, (5′S,7a′R)-1-[6-(4-methyl-1H-pyrazol-1-yl)pyrimidin-4-yl]-5′-phenyltetrahydro-3′H-spiro[piperidine-4,2′-pyrrolo[2,1-b] [1,3]oxazol]-3′-one]	48.8
O=C1N2[C@@H](CC[C@H]2c2ccccc2)OC12CCN(c1nc3cnccc3o1)CC2 [Example 4.159, (5′S,7a′R)-1-([1,3]oxazolo[4,5-c]pyridin-2-yl)-5′-phenyltetrahydro-3′H-spiro[piperidine-4,2′-pyrrolo[2,1-b] [1,3]oxazol]-3′-one]	62.6
O=C1N2[C@H](OC13CCN(c1ccnc4c(F)cnn14)CC3)[C@@H](F)C[C@H]2c1ccccc1 [Example 9.1, (5′S,7′S,7a′R)-7′-Fluoro-1-(3-fluoropyrazolo[1,5-a]pyrimidin-7-yl)-5′-phenyltetrahydro-3′H-spiro[piperidine-4,2′-pyrrolo[2,1-b]oxazol]-3′-one]	< 25
O=C(c1cccc2c1CCC2)N1CCC2(CC1)O[C@@H]1CC[C@@H](c3cc(F)cc(F)c3)N1C2=O [Example 5.29, (5′S,7a′R)-5′-(3,5-difluoro-phenyl)-1-(2,3-dihydro-1H-indene-4-carbonyl)-tetrahydro-3′H-spiro [piperidine-4,2′-pyrrolo-[2,1-b]oxazol]-3′-one]	62.2
